{"source": "patent US11213561B2", "about": "“Herbal methods for the improvement of sleep, social interaction, concern or worry” (Rox IP Pty Ltd., priority 2017, dated 2022)", "system": "individuals with poor sleep, anxiety, worry", "test": "Individual cases treated with the four herb combination", "type": "in vivo, human", "conditions": "third case; patient history, prostate medication", "source_text": "For example, the four herb combination was used to treat three separate individuals, each at a different age with varying problems. The following are cases of how the four herb combination has improved the sleep onset, sleep maintenance, and energy of these individuals. […] They took Codeine and Paracetamol for 3 months, gradually reducing the dose whilst undergoing physiotherapy. The physiotherapy continued for approximately 6 months until the arm was fully functional and pain-free. One year after the original injury, their sleep was still impaired with onset and maintenance insomnia. The person stated that they “dreaded bedtime” and the hours they would be lying awake in bed. They worried during the day, with the worry increasing in the evening. […] In addition, they had changed their lifestyle avoiding commitments in the morning, and not socializing at night as they were worried that the stimulation would further impair their sleep. After 2 weeks on the herbal combination they noticed improvements. At 1 month, they were falling asleep within 20 minutes (versus over an hour before starting the treatment) and was waking up only once per night (versus 3 times or more before starting treatment). […] Their pattern was to readily fall asleep but then wake up 6 times throughout the night which led to urinating half the time, and then having difficulty returning to sleep. […]", "data": [{"smiles": "CCOc1ccccc1OCCN[C@H](C)Cc1ccc(OC)c(S(N)(=O)=O)c1", "note": "[Flomax, Tamsulosin]", "values": [{"measurement": "reducing night-time urination", "value": "some improvement"}, {"measurement": "waking at nights", "value": "not reduced"}]}]}
